Measurements published in patent publication US20230293535A1, “ERBB/BTK INHIBITORS” (Dizal (Jiangsu) Pharmaceutical Co., Ltd., priority 2018, published 2023).
Like-named read-outs stand apart in the source and are kept apart here.

Legend:
[1] = tested on: DB cells; test: BTK (wt) cell proliferation, DB (CellTiter-Glo, 72 h); format: cell-based; conditions: Homo sapiens, DB, DB cells, CellTiter-Glo, read-out: Non-BCR activated DB GI50;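 note: DB cells in 384-well plates given a dilution series of compound, viable cells read by ATP luminescence, growth expressed versus DMSO control after subtracting a time-zero plate reading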
Experimental: (§1) OCI-LY-10 at 3,750 cells/well, TMD-8 and Ri-1 at 2,000 cells/well, and DB at 1,250 cells/well, respectively, were sorted into 384-well plates in RPMI1640 medium with 10% FBS. After overnight incubation, all cells were incubated with compound at a series of concentrations. Meanwhile, a duplicated plate of each cell line was prepared for measuring G0 value. The dosed plates were further incubated for 72 hours and the number of viable cells was measured by CellTiter-Glo® Luminescent Cell Viability Assay (Promega), a luminescent method for determining the number of viable cells through measurement of cellular ATP concentration using Envision plate reader (PerkinElmer). The percentage of proliferation was calculated as: % Proliferation = 100 × (G3 value of sample well - G0 value)/(G3 value of DMSO control - G0 value).

[2] = tested on: WT EGFR cell line A-431; test: Cell proliferation, WT EGFR A431 (CellTiter-Glo, 72 h); format: cell-based; conditions: Homo sapiens, A-431, 72 h, A431, 72 h proliferation; read-out: EGFR WT A431 GI50;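 note: proliferation from a luminescent ATP viability signal, expressed as 100 × (treated minus time-zero plate) over (DMSO control minus time-zero plate), cells grown with 10% FBS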
[3] = tested on: Ri-1 cells; test: BTK (wt) cell proliferation, Ri-1 (CellTiter-Glo, 72 h); format: cell-based; conditions: Ri-1 cells, 72 h, CellTiter-Glo, read-out: BTK WT Ri-1 GI50;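 note: viable cells quantified as cellular ATP luminescence, proliferation normalized to a time-zero plate and the DMSO control, compounds tested across a dilution series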
[4] = tested on: Ba/F3 EGFR NPH ins cells; test: Cell proliferation, Ba/F3 EGFR NPH ins (CellTiter-Glo, 72 h); format: cell-based; conditions: Ba/F3 EGFR, 72 h, Ba/F3 EGFR NPH ins, 72 h proliferation; read-out: EGFR Exon20 NPH insertion GI50;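 note: IL3-independent cells carrying constitutively phosphorylated EGFR, compound dilution series, viable cells quantified by ATP luminescence, growth relative to DMSO wells after subtracting pre-dosing (day 0) baseline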
[5] = In vitro human hepatocytes clearance assay; conditions: both, human, cryopreserved human hepatocytes (suspension), human hepatocytes Clint (µL/min/10^6cells), mixed gender human hepatocytes, incubation up to 100 min
Experimental: (§2) The protocol for rat/human hepatocytes metabolic stability assay is employed to determine the clearance of the compounds of the present disclosure in vitro.
(§3) Rat hepatocytes in male gender and human hepatocytes in mixed gender were obtained from commercial vendors (e.g., BioreclamationIVT) and stored at -150° C. prior to use. 10 mM stock solutions of tested compounds were prepared in DMSO. Thawing medium and supplement incubation medium (serum-free) were placed in a 37° C. water bath for at least 15 minutes prior to use. Stock solutions were diluted to 100 µM by combining 198 µL acetonitrile and 2 µL of 10 mM stock solution.
(§4) Vials of cryopreserved hepatocytes were removed from storage, ensured that vials remain at cryogenic temperatures. The vials were thawed in a 37° C. water bath with gently shaking. Vials were kept in water bath until all ice crystals had dissolved and were no longer visible. Vials were sprayed with 70% ethanol before being transferred to a biosafety cabinet. And then the contents were poured into the 50 mL thawing medium conical tube. Vials were centrifuged at 100 g for 10 minutes at room temperature.
(§5) Cell viability and density were counted using a Trypan Blue exclusion, and then cells were diluted with serum-free incubation medium to a working cell density of 1 × 10^6 viable cells/ml. […] The inactivated hepatocytes were used to prepare negative samples, which were used to exclude the misleading factor that resulted from instability of chemical itself.
(§6) Aliquots of 247.5 µL hepatocytes were dispensed into each well of a 96-well non-coated plate. The plate was placed in the incubator on an orbital shaker for approximately 10 minutes. Aliquots of 2.5 µL of the 100 µM test compounds were added into respective wells of the non-coated 96-well plate to start the reaction. This assay was performed in duplicate. The plate was incubated in the incubator on an orbital shaker for the designed time points. […] Samples were centrifuges for 20 minutes at 4000 g and aliquots of 100 µL of the supernatants were used for LC-MS/MS analysis for measurement of test compounds
(§7) In vitro hepatocyte clearance was estimated based on determination of elimination half-life (T½) of compounds disappearance from their initial concentrations. Peak area ratios of each compound (test or control) to IS was calculated. Ln (%Control) versus Incubation Time (min) curve was plotted, and the slope of a linear fitting line was calculated.

[6] = tested on: Her2 exon 20 insertion YVMA transduced NIH-3T3 cell line; test: Cell proliferation, Her2 YVMAins NIH-3T3 (CellTiter-Glo, 72 h); format: cell-based; conditions: Mus musculus, NIH3T3, 72 h, Her2 YVMAins cells, 72 h proliferation; read-out: Her2 Exon 20 YVMA insertion GI50;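 note: viable cells quantified by ATP luminescence, growth over a day-zero baseline plate expressed as percent of DMSO control growth, compound dilution series in 10% FBS medium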
[7] = tested on: OCI-LY-10 cells; test: BTK (wt) cell proliferation, OCI-LY-10 (CellTiter-Glo, 72 h); format: cell-based; conditions: OCI-LY-10 cells, 72 h, CellTiter-Glo, read-out: BTK WT OCI-LY-10 GI50;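 note: viable cells quantified via cellular ATP luminescence, proliferation given as percent of DMSO control after subtracting a duplicate plate read at time of dosing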
Experimental: as §1

[8] = target: T1, WT EGFR (Homo sapiens, UniProt P00533); test: WT EGFR cellular phosphorylation inhibition in A-431 (hEGF stimulated, MSD); format: cell-based; conditions: A431 cells, 4 h compound, then 100 ng/ml hEGF 10 min;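 note: electrochemiluminescence read-out of EGFR Tyr1068 phosphorylation expressed as ratio to total EGFR, cells kept in medium with 1% FBS, compounds tested as a concentration series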
T1 construct: host or cells: A-431

[9] = target: T2, human EGFR exon 20 V769_D770insASV (Homo sapiens, UniProt P00533, INS769ASV); test: EGFR Exon20 ASV insertion cellular phosphorylation inhibition (MSD pEGFR Y1068/total EGFR); format: cell-based; conditions: Ba/F3 EGFR ASV ins cells, 4 h compound, p-EGFR(Y1068)/total EGFR;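 note: electrochemiluminescent readout on an MSD SECTOR Imager, IL3-independent transduced cells in medium with 1% FBS, compound concentration series at 37 °C and 5% CO2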
T2 construct: expressed in transfected cells; host or cells: Ba/F3 (DSMZ ACC-300), lentiviral transduction, puromycin selection, IL3 depletion

[10] = tested on: TMD-8 cells; test: BTK (wt) cell proliferation, TMD-8 (CellTiter-Glo, 72 h); format: cell-based; conditions: TMD-8 cells, 72 h, CellTiter-Glo, read-out: BTK WT TMD-8 GI50;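 note: viable cells quantified by ATP-based luminescence, proliferation expressed as percent of DMSO control after subtracting a time-zero baseline plate read at dosing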
[11] = tested on: Ba/F3 EGFR ASV ins cells; test: Cell proliferation, Ba/F3 EGFR ASV ins (CellTiter-Glo, 72 h); format: cell-based; conditions: Ba/F3 EGFR, 72 h, Ba/F3 EGFR ASV ins, 72 h proliferation; read-out: EGFR Exon20 ASV insertion GI50;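 note: IL3-independent Ba/F3 cells transduced with EGFR V769_D770insASV, cellular ATP luminescence after compound exposure, growth relative to DMSO control with the day-0 baseline reading subtracted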
[12] = target: T3, EGFR L858R&T790M (Homo sapiens, UniProt P00533, L858R/T790M); test: EGFR L858R and T790M cellular phosphorylation inhibition in NCI-H1975 (MSD); format: cell-based; conditions: NCI-H1975 cells, 4 h compound, p-EGFR(Y1068)/total EGFR; read-out: EGFR L858R and T790M mutation IC50;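 note: phosphorylated and total EGFR detected by electrochemiluminescence, cells exposed to compound in medium containing 1% FBS at 37 °C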
T3 construct: host or cells: NCI-H1975

[13] = target: T4, human EGFR exon 20 H773_V774insNPH (Homo sapiens, UniProt P00533, INS773NPH); test: EGFR Exon20 NPH insertion cellular phosphorylation inhibition (MSD pEGFR Y1068/total EGFR); format: cell-based; conditions: Ba/F3 EGFR NPH ins cells, 4 h compound, p-EGFR(Y1068)/total EGFR;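 note: IL3-independent Ba/F3 cells with constitutively phosphorylated EGFR, compound exposure at 37 °C under 5% CO2, electrochemiluminescent MSD measurement of the p-EGFR to total EGFR ratio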
T4 construct: host or cells: Ba/F3

[14] = target: T5, human Her2 exon 20 insertion mutation YVMA (Homo sapiens, UniProt P04626, INS775YVMA); test: Her2 Exon 20 YVMA insertion cellular phosphorylation inhibition (MSD p-Her2 Y1248/total Her2); format: cell-based; conditions: Her2 YVMAins cells, 4 h compound;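 note: lentivirally transduced NIH-3T3 cells in 1% FBS medium, electrochemiluminescent MSD read-out, graded compound concentrations at 37 °C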
T5 construct: expressed in transfected cells; host or cells: NIH-3T3, lentiviral transduction, puromycin selection

[15] = tested on: NCI-H1975 EGFR L858R/T790M cells; test: Cell proliferation, NCI-H1975 EGFR L858R/T790M (CellTiter-Glo, 72 h); format: cell-based; conditions: Homo sapiens, NCI-H1975, 72 h, NCI-H1975, 72 h proliferation; read-out: EGFR L858R and T790M mutation GI50;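 note: viable cells quantified by luciferase-based ATP luminescence, proliferation expressed relative to DMSO-treated wells (100%) after subtracting a parallel plate read at the time of dosing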
[16] = In vitro rat hepatocytes clearance assay; conditions: male, rat, cryopreserved rat hepatocytes (suspension), rat hepatocytes Clint (µL/min/10^6cells), 1 µM-range incubation up to 100 min
Experimental: as §2, §3, §4, §5, §6, §7

T3 sequence (P00533 25-1210 T790M/L858R): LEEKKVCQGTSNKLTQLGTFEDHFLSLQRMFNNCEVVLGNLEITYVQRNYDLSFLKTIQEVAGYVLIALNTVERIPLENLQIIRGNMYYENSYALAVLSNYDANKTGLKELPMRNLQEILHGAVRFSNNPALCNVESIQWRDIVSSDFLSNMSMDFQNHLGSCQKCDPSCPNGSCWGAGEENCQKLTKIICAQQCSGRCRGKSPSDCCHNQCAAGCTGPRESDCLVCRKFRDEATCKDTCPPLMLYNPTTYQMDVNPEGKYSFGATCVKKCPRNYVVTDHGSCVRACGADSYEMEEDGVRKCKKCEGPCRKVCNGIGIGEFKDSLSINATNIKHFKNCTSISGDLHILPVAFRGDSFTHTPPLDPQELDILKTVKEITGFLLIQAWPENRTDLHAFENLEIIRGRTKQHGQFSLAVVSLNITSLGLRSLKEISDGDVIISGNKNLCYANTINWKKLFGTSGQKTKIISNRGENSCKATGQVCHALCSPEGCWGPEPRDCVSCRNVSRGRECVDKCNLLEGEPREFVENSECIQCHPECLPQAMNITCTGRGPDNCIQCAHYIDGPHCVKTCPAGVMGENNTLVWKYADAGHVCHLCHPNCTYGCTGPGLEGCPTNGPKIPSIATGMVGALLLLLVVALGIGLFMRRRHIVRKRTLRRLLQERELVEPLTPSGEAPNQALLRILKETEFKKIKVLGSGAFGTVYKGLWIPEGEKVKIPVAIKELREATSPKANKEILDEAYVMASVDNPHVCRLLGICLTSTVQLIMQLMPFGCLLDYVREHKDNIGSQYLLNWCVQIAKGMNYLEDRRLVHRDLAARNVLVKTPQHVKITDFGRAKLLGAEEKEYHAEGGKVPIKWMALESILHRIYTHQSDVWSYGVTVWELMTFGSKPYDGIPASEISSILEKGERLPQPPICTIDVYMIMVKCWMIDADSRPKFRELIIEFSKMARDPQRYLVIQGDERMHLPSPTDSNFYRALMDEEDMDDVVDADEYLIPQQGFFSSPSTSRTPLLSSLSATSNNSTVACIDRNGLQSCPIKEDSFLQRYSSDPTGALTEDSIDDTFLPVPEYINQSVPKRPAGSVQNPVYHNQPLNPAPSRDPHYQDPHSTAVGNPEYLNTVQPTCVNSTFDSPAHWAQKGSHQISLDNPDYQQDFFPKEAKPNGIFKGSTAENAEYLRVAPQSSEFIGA
T2 sequence (P00533 with tags, fused parts or gaps INS769ASV): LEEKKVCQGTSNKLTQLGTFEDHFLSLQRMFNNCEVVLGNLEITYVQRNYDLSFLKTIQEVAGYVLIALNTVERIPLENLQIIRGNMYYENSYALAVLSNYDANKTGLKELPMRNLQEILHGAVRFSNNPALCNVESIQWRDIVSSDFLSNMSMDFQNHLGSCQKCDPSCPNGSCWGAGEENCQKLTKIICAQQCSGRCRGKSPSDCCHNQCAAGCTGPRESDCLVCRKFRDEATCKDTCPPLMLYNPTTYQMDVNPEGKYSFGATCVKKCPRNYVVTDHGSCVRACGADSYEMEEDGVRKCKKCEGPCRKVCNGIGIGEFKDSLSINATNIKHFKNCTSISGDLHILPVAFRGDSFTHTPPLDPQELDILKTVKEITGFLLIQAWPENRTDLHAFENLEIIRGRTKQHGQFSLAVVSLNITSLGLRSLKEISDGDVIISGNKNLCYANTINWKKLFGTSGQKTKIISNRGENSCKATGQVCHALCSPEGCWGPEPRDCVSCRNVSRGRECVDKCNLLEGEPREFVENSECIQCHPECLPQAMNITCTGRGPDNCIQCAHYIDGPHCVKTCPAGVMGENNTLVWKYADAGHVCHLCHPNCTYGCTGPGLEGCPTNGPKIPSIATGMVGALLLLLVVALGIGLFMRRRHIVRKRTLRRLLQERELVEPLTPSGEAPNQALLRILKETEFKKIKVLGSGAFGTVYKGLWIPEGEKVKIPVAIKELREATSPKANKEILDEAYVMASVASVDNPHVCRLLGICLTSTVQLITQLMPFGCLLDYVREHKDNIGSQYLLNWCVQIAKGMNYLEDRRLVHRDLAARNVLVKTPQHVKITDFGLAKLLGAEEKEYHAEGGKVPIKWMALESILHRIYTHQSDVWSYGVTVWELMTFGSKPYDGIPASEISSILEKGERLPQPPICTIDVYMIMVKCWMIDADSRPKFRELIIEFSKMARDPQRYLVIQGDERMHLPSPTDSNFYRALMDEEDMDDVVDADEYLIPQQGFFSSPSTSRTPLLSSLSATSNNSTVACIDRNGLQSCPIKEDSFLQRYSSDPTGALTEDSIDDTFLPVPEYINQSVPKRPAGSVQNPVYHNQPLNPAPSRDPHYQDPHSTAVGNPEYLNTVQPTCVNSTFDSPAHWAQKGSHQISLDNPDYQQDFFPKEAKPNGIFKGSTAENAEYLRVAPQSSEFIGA
T4 sequence (P00533 with tags, fused parts or gaps INS773NPH): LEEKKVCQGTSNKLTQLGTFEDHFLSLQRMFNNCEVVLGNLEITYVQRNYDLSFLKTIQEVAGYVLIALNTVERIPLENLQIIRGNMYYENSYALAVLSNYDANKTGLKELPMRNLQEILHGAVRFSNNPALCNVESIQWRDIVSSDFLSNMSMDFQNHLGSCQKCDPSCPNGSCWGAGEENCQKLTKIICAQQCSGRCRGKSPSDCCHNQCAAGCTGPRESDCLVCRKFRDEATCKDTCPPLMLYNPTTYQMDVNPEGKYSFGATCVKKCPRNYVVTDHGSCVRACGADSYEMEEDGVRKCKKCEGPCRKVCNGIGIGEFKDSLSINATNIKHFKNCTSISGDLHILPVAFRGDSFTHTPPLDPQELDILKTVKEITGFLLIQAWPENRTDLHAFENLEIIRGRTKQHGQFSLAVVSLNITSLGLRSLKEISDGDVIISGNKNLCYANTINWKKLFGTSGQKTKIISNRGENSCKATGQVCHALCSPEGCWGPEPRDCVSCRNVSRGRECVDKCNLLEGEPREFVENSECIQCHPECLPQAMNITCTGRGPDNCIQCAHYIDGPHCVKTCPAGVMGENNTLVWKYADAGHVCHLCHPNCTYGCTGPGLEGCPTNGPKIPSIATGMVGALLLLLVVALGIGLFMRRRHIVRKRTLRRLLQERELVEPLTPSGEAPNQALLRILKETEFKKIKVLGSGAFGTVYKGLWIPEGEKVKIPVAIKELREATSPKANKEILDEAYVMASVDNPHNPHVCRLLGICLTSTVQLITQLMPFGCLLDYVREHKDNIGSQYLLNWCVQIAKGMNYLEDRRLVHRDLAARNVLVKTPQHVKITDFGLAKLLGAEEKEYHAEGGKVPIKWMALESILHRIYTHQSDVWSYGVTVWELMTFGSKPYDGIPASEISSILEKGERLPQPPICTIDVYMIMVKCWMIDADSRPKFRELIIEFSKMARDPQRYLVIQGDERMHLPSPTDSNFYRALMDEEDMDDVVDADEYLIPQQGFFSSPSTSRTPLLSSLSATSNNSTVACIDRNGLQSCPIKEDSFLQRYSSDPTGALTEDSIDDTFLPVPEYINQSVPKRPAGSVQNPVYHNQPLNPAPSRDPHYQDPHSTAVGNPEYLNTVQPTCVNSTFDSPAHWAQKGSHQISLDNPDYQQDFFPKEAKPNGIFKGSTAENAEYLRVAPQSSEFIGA
T5 sequence (P04626 with tags, fused parts or gaps INS775YVMA): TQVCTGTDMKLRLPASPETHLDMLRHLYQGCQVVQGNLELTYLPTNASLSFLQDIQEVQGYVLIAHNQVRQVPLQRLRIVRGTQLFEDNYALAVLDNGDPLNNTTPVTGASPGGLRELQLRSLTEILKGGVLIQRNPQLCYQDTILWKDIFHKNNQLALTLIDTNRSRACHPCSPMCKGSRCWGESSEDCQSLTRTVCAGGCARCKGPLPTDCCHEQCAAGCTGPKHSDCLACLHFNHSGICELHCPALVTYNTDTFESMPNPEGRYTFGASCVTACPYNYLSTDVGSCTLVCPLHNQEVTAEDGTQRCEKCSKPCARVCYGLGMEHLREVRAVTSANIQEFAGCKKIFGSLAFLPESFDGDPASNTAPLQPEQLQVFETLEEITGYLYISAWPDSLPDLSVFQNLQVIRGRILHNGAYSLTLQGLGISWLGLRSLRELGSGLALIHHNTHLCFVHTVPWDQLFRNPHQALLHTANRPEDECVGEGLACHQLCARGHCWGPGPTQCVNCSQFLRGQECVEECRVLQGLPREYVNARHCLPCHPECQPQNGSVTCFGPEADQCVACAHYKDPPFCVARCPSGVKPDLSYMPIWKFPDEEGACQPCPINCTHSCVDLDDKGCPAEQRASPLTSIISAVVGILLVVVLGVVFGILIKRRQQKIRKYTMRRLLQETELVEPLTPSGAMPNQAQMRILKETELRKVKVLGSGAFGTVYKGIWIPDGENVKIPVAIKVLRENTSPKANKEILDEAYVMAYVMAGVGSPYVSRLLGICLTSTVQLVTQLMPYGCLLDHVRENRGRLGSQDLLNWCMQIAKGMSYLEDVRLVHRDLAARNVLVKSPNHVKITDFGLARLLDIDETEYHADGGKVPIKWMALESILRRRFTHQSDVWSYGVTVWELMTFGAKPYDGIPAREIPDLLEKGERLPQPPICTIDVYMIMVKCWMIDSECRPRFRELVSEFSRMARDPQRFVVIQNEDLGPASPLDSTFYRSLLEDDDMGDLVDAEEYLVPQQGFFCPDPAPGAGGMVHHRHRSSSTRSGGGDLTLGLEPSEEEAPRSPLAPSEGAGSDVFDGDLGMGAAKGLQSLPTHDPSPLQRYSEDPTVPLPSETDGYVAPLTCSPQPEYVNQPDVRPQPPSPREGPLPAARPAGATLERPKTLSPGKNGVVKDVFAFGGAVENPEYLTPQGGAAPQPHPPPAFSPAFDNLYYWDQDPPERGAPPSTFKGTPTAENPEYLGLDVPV

| GI50 [2] [nM] | GI50 [4] [nM] | hepatocyte CLint at 1 µM [5] [µL/min/1e6 cells] | IC50 [8] [nM] | IC50 [9] [nM] | GI50 [11] [nM] | IC50 [12] [nM] | IC50 [13] [nM] | IC50 [14] [nM] | GI50 [15] [nM] | hepatocyte CLint at 1 µM [16] [µL/min/1e6 cells] | GI50 ([7]; Homo sapiens, OCI-Ly10, 72 h) [nM] | SMILES | GI50 [1] [nM] | GI50 [3] [nM] | GI50 [6] [nM] | GI50 [7] [nM] | GI50 ([10]; Homo sapiens, TMD8, 72 h) [nM] | GI50 [10] [nM] | GI50 ([3]; Ri-1, 72 h) [nM] |
| --- | --- | --- | --- | --- | --- | --- | --- | --- | --- | --- | --- | --- | --- | --- | --- | --- | --- | --- | --- |
| 38.3 | 85.9 | 4.01 | 596 | 103 | 113 | 1.8 | 27.9 | 11.6 | 5.4 | 13.9 | – | C=CC(=O)Nc1cc(Nc2nccc(Nc3cc(Cl)c(F)cc3C(C)(O)CC)n2)c(OC)cc1N1CC[C@@H](N(C)C)C1 (single isomer, unassigned) [Compound 76, N-(5-(4-(5-chloro-4-fluoro-2-((R)-2-hydroxybutan-2-yl)phenylamino)pyrimidin-2-ylamino)-2-((R)-3-(dimethylamino)pyrrolidin-1-yl)-4-methoxyphenyl) acrylamide or N-(5-(4-(5-chloro-4-fluoro-2-((S)-2-hydroxybutan-2-yl)phenylamino)pyrimidin-2-ylamino)-2-((R)-3-(dimethylamino)pyrrolidin-l-yl)-4-methoxyphenyl) acrylamide] | 1070 | 5.93 | 97.7 | 2.93 | – | 8.44 | – |
| 12 | 26.5 | 9.78 | 12.2 | 8.7 | 26.5 | 0.4 | 11.2 | 5.5 | 2.7 | 78.4 | – | [2H]C([2H])([2H])N(CCN(C)c1cc(OC)c(Nc2ncnc(Nc3cc(F)c(F)cc3C(C)(C)O)n2)cc1NC(=O)C=C)C([2H])([2H])[2H] [Compound 22, N-(2-((2-(bis(methyl-d3)amino)ethyl)(methyl)amino)-5-((4-((4,5-difluoro-2-(2-hydroxypropan-2-yl)phenyl)amino)-1,3,5-triazin-2-yl)amino)-4-methoxyphenyl) acrylamide] | – | – | 44.4 | – | – | – | – |
| 41.6 | 42.7 | 10.3 | – | – | 37.8 | – | – | 5.3 | 1.6 | > 300 | 6.41 | C=CC(=O)Nc1cc(Nc2nccc(Nc3cc(Cl)c(F)cc3C(C)(C)O)n2)c(OC)cc1N(C)CCN(C)C [Compound 36, (N-(5-(4-(5-chloro-4-fluoro-2-(2-hydroxypropan-2-yl)phenylamino)pyrimidin-2-ylamino)-2-((2-(dimethylamino)ethyl)(methyl)amino)-4-methoxyphenyl)acrylamide)] | 881 | – | 75.2 | – | 8.32 | – | 8.2 |

| SMILES | GI50 [2] [nM] | GI50 [4] [nM] | hepatocyte CLint at 1 µM [5] [µL/min/1e6 cells] | IC50 [8] [nM] | IC50 [9] [nM] | GI50 [11] [nM] | IC50 [12] [nM] | IC50 [13] [nM] | IC50 [14] [nM] | GI50 [15] [nM] | hepatocyte CLint at 1 µM [16] [µL/min/1e6 cells] | GI50 ([7]; Homo sapiens, OCI-Ly10, 72 h) [nM] | GI50 [1] [nM] | GI50 [3] [nM] | GI50 [6] [nM] | GI50 [7] [nM] | GI50 ([10]; Homo sapiens, TMD8, 72 h) [nM] | GI50 [10] [nM] | GI50 ([3]; Ri-1, 72 h) [nM] |
| --- | --- | --- | --- | --- | --- | --- | --- | --- | --- | --- | --- | --- | --- | --- | --- | --- | --- | --- | --- |
| C=CC(=O)Nc1cc(Nc2ncnc(Nc3cc(Cl)c(F)cc3C(C)(O)CC)n2)c(OC)cc1N1CC[C@@H](N(C)C)C1 (single isomer, unassigned) [Compound 69, N-(5-(4-(5-chloro-4-fluoro-2-((R)-2-hydroxybutan-2-yl)phenylamino)-1,3,5-triazin-2-ylamino)-2-((R)-3-(dimethylamino)pyrrolidin-1-yl)-4-methoxyphenyl)acrylamide or N-(5-(4-(5-chloro-4-fluoro-2-((S)-2-hydroxybutan-2-yl)phenylamino)-1,3,5-triazin-2-ylamino)-2-((R)-3-(dimethylamino)pyrrolidin-1-yl)-4-methoxyphenyl)acrylamide] | 12.2 | 58.1 | 4.12 | 56.2 | 20.2 | 70.1 | 1.2 | 46.3 | 33.1 | 5.5 | 10.7 | – | > 3000 | 13.9 | 89.1 | 74.5 | 10.1 | – | – |
